For this experiment, the target named is T1, TLR4; Recombinant human TLR4 protein (Active) (Homo sapiens, UniProt O00206).
T1 construct: commercial recombinant protein (Abcam, 'Active'); immobilised on CM5 chip by amine coupling
The experiment is described as follows: surface plasmon resonance (Biacore T200, TLR4 immobilised on CM5 chip). The format is binding. An excerpt: surface plasmon resonance (Biacore T200, TLR4 immobilised on CM5 chip) on TLR4; Recombinant human TLR4 protein (Active)
On the technique in general: In SPR one partner is held on a chip, and binding of the other changes the refractive index at the surface.

T1 sequence (O00206 24-631 limits assumed): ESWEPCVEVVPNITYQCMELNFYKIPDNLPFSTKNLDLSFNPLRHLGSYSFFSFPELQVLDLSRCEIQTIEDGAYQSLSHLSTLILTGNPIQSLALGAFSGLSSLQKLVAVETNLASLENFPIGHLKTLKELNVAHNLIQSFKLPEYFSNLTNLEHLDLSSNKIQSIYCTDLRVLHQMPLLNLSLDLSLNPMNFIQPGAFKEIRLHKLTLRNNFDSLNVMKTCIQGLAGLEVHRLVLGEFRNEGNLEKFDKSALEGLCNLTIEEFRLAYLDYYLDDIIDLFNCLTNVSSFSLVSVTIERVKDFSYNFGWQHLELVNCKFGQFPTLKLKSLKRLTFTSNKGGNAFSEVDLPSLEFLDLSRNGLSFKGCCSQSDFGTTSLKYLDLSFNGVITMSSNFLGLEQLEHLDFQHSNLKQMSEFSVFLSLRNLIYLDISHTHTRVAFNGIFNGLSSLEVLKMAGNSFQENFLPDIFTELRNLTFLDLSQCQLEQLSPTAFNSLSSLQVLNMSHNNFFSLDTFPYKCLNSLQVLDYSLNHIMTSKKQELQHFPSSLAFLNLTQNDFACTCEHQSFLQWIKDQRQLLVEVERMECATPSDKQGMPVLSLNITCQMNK

With `O=c1oc2c(O)c(O)cc3c(=O)oc4c(O)c(O)cc1c4c23` [Ellagic acid], the Kd (commonly the free concentration of one partner at which half of the binding sites on the other are occupied at equilibrium, for simple one-to-one binding) turned out to be 19.2 µM.

These data come from article PMC10981743, “Network pharmacology, computational biology integrated surface plasmon resonance technology reveals the mechanism of ellagic acid against rotavirus” (Scientific Reports, 2024).
